Assay results: patent US20230257366A1, “SULFUR-CONTAINING ISOINDOLINE DERIVATIVE, AND PREPARATION METHOD THEREFOR AND MEDICAL USE THEREOF” (JIANGSU HENGRUI PHARMACEUTICALS CO., LTD., priority 2020, published 2023)

Key:
[1] = Plasma stability in monkey plasma (LC-MS/MS); assay type: in vitro ADME; details: cryopreserved monkey plasma; monkey plasma, 37° C., 1 μM; read-out: T1/2 (min)/monkey
Procedure: The stability of the compound of Example 6 and the control example CC-92480 after incubation in cryopreserved monkey plasma at 37° C. for 0 min, 15 min, 30 min, 60 min, 120 min, 180 min and 240 min was determined quantitatively by LC-MS/MS.
Compound of Example 6 and control example CC-92480.
Monkey plasma was purchased from Shanghai Medicilon Inc.
A certain amount of the compound of Example 6 was weighed and prepared with DMSO to obtain a 30 mM stock solution. A certain volume of the stock solution was diluted into a solution I at a concentration of 1600 μM with DMSO; and a certain volume of the solution I at 1600 μM was diluted with 50% methanol to obtain a working solution II at a concentration of 16 μM. A 30 mM stock solution, a 1600 μM solution I′, and a 16 μM working solution II′ of CC-92480 were prepared as described above.
5 μL of the working solutions at 16 μM of the compound of Example 6 and the control example CC-92480 were each added to 75 μL of plasma to make the final concentration of the compounds of 1 μM. The samples were incubated under a 37° C. water bath for 0 min, 15 min, 30 min, 60 min, 90 min, 120 min, and 180 min. […] The supernatant was analyzed by LC-MS with a sample injection volume of 2 μL.

NCI-H929 cells = assay: NCI-H929 proliferation experiment (CellTiter-Glo, 5 days); assay type: cell-based; details: Homo sapiens, 120 h, 5 days incubation, read-out: IC50 values for the inhibition of proliferation of NCI-H929 cells
Procedure: The following method was used to determine the inhibitory activity of the compounds of the present disclosure on the proliferation of NCI-H929 cells. The experimental method was briefly described as follows.
NCI-H929 cells (ATCC, CRL-9068) were cultured in a complete medium (RPMI 1640 medium (Hyclone, SH30809.01) containing 10% fetal bovine serum (Corning, 35-076-CV) and 0.05 mM 2-mercaptoethanol (Sigma, M3148)). On the first day of the experiment, NCI-H929 cells were seeded in a 96-well plate at a density of 6000 cells/well with a complete medium to form 100 μL of cell suspension per well, and 10 μL of test compound prepared in a complete medium and diluted in a gradient was added to each well. The compound was firstly dissolved in DMSO, with an initial concentration of 10 mM, and then subjected to serial dilution at a 5-fold concentration gradient for a total of 9 concentration points, with a blank control of 100% DMSO. Another 5 μL of the compound dissolved in DMSO was added to 95 μL of complete medium, i.e., the compound was diluted 20-fold with the complete medium. Finally the compound diluted in the complete medium at 10 μL/well was added to the cell suspension, wherein the final concentrations of the compound were 9 concentration points obtained by 5-fold gradient dilution starting from 50 μM. A blank control containing 0.5% DMSO was set. The plate was incubated in a cell incubator at 37° C. with 5% CO2 for 5 days. On the sixth day, the 96-well cell culture plate was taken out, added with a CellTiter-Glo® luminescent cell activity detect reagent (Promega, G7573) at 50 μL/well, left to stand at room temperature for 10 min, and read for the luminescence signal values using a multi-mode microplate reader (PerkinElmer, EnVision 2015). IC50 values for the inhibitory activity of the compounds were calculated using Graphpad Prism software, with the results shown in Table 1.

[2] = Effect on body weight of tumor-bearing CB-17 SCID mice; assay type: in vivo; details: 1 mg/kg qd, 11 days
Procedure: NCI-H929 cells in a logarithmic growth phase were inoculated subcutaneously into the right flank of 30 female CB-17 SCID mice at 5×10^6 cells/mouse/100 μL (containing 50 μL of Matrigel). After 10 days, when the tumor volume of the tumor-bearing mice reached about 200 mm^3, the mice were randomly divided into 3 groups according to the tumor volume and body weight: vehicle control group, CC-92480-1 mpk, compound of Example 6-1 mpk, with 7 mice in each group. The day of grouping was set as Day 0 (D0), and intragastric administration was performed once a day for 11 days (Table 2). For the tumor-bearing mice, the tumor volume was measured with a vernier caliper and the body weight was measured with a balance twice a week, and the data were recorded.
The effect of the compound of Example 6 and the control example CC-92480 on the body weight of CB-17 SCID mice is shown in FIG. 2.

- half-life at 1 µM [1]: 806 min
- IC50 (NCI-H929 cells): 0.02 nM
SMILES: N#Cc1ccc(N2CCC(Sc3ccc(COc4cccc5c4CN([C@H]4CCC(=O)NC4=O)C5=O)cn3)CC2)c(F)c1 [Compound 6, (S)-4-(4-((5-(((2-(2,6-dioxopiperidin-3-yl)-1-oxoisoindolin-4-yl)oxy)methyl)pyridin-2-yl)thio)piperidin-1-yl)-3-fluorobenzonitrile]
- influence on the body weight of mice [2]: no influence on the body weight of mice
